From the NIST ThermoML archive (doi:10.1016/j.jct.2015.08.006)
± gives the expanded uncertainty stated by the source.

Settings: 298.44 K, Pendant drop shape

- surface tension liquid-gas: 71.9 ± 0.6 mN/m
SMILES: O [water]
